Assays:
[1] = target: T1, Nitric oxide synthase 1 (Homo sapiens, UniProt P29475); assay: Inhibitory activity against Neuronal nitric oxide synthase
[2] = target: T2, Nitric oxide synthase, inducible (Homo sapiens, UniProt P35228); assay: Inhibitory activity against Inducible nitric oxide synthase
[3] = target: T3, Nitric oxide synthase 3 (Homo sapiens, UniProt P29474); assay: Inhibitory activity against Endothelial nitric oxide synthase
T3 sequence (P29474 whole entry): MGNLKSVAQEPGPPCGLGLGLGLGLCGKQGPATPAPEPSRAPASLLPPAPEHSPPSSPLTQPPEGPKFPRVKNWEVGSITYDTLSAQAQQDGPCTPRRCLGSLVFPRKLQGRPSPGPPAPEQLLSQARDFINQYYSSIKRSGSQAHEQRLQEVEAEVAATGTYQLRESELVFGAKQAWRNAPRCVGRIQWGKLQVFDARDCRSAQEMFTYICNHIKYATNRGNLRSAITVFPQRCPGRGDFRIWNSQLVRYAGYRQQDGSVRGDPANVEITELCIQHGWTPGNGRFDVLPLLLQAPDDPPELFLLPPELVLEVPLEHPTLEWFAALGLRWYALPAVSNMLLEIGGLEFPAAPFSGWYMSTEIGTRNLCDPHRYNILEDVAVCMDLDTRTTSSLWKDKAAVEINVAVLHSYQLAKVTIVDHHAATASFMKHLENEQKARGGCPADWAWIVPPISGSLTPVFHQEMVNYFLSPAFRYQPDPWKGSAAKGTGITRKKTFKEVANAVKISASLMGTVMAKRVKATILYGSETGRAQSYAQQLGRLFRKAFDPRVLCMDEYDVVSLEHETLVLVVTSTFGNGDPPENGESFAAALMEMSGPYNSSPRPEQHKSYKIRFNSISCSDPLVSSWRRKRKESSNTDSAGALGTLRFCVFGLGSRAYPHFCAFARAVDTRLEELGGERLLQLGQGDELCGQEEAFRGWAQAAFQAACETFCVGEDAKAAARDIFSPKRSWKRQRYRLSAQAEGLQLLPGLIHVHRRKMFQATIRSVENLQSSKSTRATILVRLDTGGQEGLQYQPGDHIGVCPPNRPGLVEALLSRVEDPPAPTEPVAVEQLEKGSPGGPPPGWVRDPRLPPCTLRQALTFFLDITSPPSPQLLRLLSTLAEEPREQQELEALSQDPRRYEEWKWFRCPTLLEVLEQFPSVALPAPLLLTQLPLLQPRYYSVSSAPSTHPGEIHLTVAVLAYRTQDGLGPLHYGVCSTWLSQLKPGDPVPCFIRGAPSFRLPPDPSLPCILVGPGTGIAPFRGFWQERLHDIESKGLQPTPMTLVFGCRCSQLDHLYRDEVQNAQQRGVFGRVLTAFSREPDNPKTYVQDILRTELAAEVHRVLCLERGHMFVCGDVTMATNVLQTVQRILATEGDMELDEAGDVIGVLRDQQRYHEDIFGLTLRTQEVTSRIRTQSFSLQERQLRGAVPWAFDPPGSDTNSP

[4] = target: T2, Nitric oxide synthase, inducible; assay: In vitro inhibitory activity against Inducible nitric oxide synthase at 50 uM concentration
[5] = target: T1, Nitric oxide synthase 1; assay: Compound was evaluated for in vitro inhibitory activity against Neuronal nitric oxide synthase; settings: concentration not given here

T1 sequence (P29475 whole entry): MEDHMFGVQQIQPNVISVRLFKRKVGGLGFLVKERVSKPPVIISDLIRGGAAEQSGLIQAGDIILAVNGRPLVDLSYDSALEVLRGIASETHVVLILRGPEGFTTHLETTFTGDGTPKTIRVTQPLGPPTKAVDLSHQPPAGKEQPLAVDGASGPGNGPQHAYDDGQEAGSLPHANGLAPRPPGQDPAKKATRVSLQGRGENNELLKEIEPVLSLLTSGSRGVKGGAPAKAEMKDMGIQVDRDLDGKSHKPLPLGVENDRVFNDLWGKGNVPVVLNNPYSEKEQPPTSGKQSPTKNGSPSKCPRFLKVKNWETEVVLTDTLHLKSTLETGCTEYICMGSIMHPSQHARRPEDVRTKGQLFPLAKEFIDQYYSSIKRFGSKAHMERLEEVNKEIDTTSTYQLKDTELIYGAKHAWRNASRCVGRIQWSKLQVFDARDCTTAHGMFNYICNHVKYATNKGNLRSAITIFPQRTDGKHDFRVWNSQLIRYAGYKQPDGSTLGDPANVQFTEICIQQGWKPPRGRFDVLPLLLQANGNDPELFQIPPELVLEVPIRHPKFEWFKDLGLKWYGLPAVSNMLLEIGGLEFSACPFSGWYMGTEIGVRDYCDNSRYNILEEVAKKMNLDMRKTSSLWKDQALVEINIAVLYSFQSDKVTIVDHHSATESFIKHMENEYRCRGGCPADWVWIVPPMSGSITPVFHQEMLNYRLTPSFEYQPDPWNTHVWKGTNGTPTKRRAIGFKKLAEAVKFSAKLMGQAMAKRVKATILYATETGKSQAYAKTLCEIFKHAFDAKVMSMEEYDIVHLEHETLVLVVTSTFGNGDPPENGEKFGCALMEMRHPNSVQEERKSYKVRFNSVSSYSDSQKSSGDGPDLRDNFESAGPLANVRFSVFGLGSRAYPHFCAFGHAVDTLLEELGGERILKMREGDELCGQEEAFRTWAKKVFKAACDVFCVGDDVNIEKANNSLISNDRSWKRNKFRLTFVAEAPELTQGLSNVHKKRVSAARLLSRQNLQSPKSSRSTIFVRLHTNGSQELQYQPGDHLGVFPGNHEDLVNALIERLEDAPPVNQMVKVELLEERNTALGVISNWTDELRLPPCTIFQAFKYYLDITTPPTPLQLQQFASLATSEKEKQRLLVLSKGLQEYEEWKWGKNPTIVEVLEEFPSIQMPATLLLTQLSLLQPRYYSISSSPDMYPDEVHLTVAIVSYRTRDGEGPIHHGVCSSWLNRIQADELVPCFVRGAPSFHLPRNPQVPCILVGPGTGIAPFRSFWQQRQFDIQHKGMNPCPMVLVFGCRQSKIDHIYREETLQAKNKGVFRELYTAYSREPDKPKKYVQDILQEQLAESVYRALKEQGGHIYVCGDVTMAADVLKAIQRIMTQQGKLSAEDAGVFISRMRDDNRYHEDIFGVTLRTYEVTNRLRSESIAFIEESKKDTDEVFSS
T2 sequence (P35228 whole entry): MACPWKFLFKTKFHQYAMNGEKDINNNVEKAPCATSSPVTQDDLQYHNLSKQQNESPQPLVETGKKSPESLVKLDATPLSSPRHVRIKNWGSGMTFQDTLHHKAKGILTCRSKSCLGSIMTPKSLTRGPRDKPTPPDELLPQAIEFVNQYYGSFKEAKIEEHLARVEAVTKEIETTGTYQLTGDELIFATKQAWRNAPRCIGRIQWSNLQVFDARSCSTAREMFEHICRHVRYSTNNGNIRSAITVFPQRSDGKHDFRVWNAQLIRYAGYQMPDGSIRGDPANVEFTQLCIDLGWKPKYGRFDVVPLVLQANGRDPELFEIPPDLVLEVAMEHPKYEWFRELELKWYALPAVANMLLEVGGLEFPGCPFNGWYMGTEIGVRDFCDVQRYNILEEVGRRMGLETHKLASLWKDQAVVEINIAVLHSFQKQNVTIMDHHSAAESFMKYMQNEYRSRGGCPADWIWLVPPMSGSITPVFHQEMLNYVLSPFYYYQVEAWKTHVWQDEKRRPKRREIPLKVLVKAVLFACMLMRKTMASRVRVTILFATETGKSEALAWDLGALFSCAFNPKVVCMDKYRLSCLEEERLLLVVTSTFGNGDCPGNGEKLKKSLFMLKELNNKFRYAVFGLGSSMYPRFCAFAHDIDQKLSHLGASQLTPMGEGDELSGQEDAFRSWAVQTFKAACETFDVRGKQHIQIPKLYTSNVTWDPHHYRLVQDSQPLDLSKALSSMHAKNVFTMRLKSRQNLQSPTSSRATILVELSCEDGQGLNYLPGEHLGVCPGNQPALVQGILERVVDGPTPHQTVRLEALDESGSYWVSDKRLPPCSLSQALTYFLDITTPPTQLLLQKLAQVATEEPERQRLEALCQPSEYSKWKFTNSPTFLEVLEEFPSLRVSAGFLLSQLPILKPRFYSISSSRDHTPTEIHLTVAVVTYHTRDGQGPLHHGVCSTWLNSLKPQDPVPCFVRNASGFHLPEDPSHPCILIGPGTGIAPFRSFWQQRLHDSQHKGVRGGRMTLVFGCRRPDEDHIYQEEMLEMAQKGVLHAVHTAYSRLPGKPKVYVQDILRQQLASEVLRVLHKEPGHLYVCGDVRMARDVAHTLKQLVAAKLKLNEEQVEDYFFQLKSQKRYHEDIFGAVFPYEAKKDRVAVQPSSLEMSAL

Row | SMILES | IC50 [1] [µM] | IC50 [2] [µM] | IC50 [3] [µM] | inhibition [4] [%] | inhibition [5] [%]
1 | O=c1oc2ccc(Cl)cc2n1CN1CCCCC1 | 4.6 | 1.5 | 18.9 |  | 
2 | CN(CCc1ccccc1)Cn1c(=O)oc2ccc(Cl)cc21 | 68 | 15.9 | 15.9 |  | 
3 | O=c1oc2ccc(Cl)cc2n1CN1CCOCC1 | 5.6 | 0.8 | 14.7 |  | 
4 | Cc1ccc2nc(O)oc2n1 | 50 | 7.4 | > 50 |  | 
5 | CN1CCN(Cn2c(=O)oc3ccc(Cl)cc32)CC1 | 4.4 | 1.2 | 15.5 |  | 
6 | O=c1oc2ccc(Cl)cc2n1CN1CCSCC1 | 4.4 | 3.5 | 20.3 |  | 
7 | CN(Cn1c(=O)oc2ccc(Cl)cc21)c1ccccn1 |  |  | 8.4 | 74 | 71
8 | Oc1nc2ncccc2o1 |  | > 50 |  |  | 
9 | O=c1[nH]c2cc(F)ccc2o1 | > 50 | > 50 | > 50 |  | 
10 | CN(Cc1ccccc1)Cn1c(=O)oc2ccc(Cl)cc21 | 11.5 | 13.4 | 13.6 |  | 
11 | Cc1ccc2[nH]c(=O)oc2c1 | 13.1 | > 50 | > 50 |  | 
12 | Cc1cccc2oc(=O)[nH]c12 | > 50 | > 50 | > 50 |  | 
13 | Cc1ccc2oc(O)nc2c1 | 50 | 9.9 | 10.6 |  | 
14 | N#Cc1ccc2oc(O)nc2c1 | 50 | 14.5 | 50 |  | 
15 | O=c1oc2ccc(Cl)cc2n1CCN1CCOCC1 |  |  |  | 0 | 
16 | Sc1nc2cc(Cl)ccc2o1 | > 50 | > 50 | > 50 |  | 
